Measured values: paper PMC10739630, “Galidesivir Triphosphate Promotes Stalling of Dengue-2 Virus Polymerase Immediately Prior to Incorporation” (ACS Infectious Diseases, 2023)

Key:
Format in all cases: biochemical
DENV2 NS5 [1] = target: T1, DENV2 NS5 (Dengue virus 2 Thailand/16681/84, UniProt P29990); settings: read-out: KM^app for ATP
ZIKV NS5 = ZIKV NS5 (Zika virus, UniProt Q32ZE1); assay: SYTO […] fluorescence RdRp assay, A2-primed, poly(U) template; settings: read-out: IC50 ^a (μM, mean ± std. dev.)
DENV2 NS5 [2] = target: T1, DENV2 NS5; assay: as above; settings: read-out: IC50 ^a (μM, mean ± std. dev.)

T1 sequence (P29990 2492-3391 limits assumed): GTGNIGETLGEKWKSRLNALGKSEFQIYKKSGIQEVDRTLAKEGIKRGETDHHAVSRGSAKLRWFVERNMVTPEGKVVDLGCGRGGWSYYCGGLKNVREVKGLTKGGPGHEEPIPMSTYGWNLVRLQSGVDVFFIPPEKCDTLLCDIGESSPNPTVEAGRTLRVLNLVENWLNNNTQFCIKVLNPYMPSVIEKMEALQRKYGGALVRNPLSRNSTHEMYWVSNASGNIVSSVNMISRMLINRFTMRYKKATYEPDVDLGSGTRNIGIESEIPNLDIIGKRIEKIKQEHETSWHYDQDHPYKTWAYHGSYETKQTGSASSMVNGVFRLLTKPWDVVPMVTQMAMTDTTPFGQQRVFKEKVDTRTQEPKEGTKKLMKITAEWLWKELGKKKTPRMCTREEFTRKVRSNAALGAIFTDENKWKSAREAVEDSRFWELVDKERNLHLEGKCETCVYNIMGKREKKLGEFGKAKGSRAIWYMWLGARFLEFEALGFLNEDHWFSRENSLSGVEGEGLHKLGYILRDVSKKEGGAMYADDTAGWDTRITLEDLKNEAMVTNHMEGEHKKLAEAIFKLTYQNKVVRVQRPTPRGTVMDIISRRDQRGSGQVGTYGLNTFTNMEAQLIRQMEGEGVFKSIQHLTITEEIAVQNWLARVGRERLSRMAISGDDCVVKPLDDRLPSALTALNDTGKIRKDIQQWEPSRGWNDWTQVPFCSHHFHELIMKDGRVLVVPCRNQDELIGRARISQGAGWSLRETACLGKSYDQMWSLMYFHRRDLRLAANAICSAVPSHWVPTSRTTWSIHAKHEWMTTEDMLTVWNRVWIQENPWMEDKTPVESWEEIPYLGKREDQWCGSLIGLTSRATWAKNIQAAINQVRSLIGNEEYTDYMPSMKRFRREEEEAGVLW
Chain of ZIKV NS5 (Q32ZE1 2517-3419): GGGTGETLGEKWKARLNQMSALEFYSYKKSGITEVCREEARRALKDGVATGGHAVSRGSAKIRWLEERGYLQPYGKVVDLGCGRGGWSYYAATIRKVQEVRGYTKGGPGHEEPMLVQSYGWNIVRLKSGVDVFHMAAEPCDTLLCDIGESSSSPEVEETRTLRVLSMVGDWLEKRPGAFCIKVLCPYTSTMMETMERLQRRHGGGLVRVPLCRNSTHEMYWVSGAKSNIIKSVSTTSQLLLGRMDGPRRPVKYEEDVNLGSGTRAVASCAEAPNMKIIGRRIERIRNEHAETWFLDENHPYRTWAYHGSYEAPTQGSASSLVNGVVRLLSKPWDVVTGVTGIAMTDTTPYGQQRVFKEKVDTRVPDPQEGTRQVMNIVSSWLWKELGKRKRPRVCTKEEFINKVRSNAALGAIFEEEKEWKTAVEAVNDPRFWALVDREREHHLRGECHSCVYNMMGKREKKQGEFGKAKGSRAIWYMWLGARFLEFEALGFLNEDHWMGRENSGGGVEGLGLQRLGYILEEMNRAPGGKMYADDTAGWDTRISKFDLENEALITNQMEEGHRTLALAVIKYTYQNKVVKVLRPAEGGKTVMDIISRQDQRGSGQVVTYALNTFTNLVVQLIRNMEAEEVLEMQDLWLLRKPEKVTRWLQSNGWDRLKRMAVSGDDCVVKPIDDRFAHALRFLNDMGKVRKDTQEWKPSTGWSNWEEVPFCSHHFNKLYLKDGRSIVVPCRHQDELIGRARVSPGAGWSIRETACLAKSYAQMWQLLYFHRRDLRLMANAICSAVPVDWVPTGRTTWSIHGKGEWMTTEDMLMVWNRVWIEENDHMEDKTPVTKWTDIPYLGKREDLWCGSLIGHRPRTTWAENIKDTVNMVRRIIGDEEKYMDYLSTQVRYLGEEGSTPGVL

Row | Compound | Km (DENV2 NS5 [1]) | IC50 (ZIKV NS5) | IC50 (DENV2 NS5 [2])
1 | Nc1ncnc2c1ncn2[C@@H]1O[C@H](COP(=O)(O)OP(=O)(O)OP(=O)(O)O)[C@@H](O)[C@H]1O [ATP] | 430 µM |  | 
2 | Nc1ncnc2c1ncn2[C@@H]1O[C@H](COP(=O)(O)OP(=O)(O)OP(=O)(O)O)C[C@H]1O [3′-dATP, reference compound] |  | 0.06 ± 0.02 µM | 0.48 ± 0.05 µM
3 | Nc1ncnc2c([C@@H]3N[C@H](COP(=O)(O)OP(=O)(O)OP(=O)(O)O)[C@@H](O)[C@H]3O)c[nH]c12 [Gal-TP] |  | 47 ± 5 µM | 42 ± 12 µM
